In general, melting point refers to the temperature, or range, at which the solid turns liquid. The compound `COc1ccc(C(=C(C)C(=O)O)c2ccc(OC)cc2)cc1` came in with a melting point of 134 to 135 °C.
For `Cc1cnc2c(c1)COP(=S)(OC(C)C)O2` (configuration not stated) the value was 96 to 98 °C; for `CCCOc1ccc(S(=O)(=O)N2CCN(CC)CC2)cc1-c1nc2cc(Cl)c([N+](=O)[O-])cc2c(=O)[nH]1`, 239 to 241 °C.
For `CC(C)(C)OC(=O)N1C[C@@H](S)C[C@@H]1CN(C(=O)OC(C)(C)C)S(N)(=O)=O` the value was 90 to 91.5 °C; for `Cc1cc(N2N=CCNC2=O)cc(Cl)c1C(=O)c1ccc(Cl)cc1`, 171 to 172 °C.
To `CC(=O)NC(Cc1ccccc1)C(=O)OCc1cc(C)cc(C)c1` (configuration not stated) belongs 97 to 100 °C.
In the case of `CC(C)Cc1nc(Cc2ccccc2)c2c(c1O)COC2`, the melting point lay in the range of 174 to 175 °C.
Compound `Cc1ncccc1C#N` displayed a melting point of 55 °C.
To `CC(C)(C)OC(=O)N1CCN(Cc2ccc([N+](=O)[O-])cc2)CC1` belongs 99 to 100 °C; to `N#Cc1ccc(Cn2c(=O)[nH]c3cc(Cl)cc(Cl)c3c2=O)cc1`, 317 to 320 °C; to `COC(=O)c1ccc(C(F)F)nc1C`, 135 to 136 °C.
With `Cc1nc(-c2nn(Cc3ccccc3)c3ccccc23)oc1CO`, the melting point fell in the range of 127 to 129 °C.
In turn, `Cn1c(C(F)(F)F)cc(=O)n(-c2cc(OCSc3ccc(Cl)cc3)c(Cl)cc2F)c1=O` yielded a melting point of 141 to 142 °C.
For `O=c1ccc(Oc2ccc3c(c2)CCC2(CCNCC2)O3)n[nH]1` the value was 233 to 235 °C.
`CCCC(c1ccc(C#N)cc1)n1ccnc1` (configuration not stated) had a melting point of 63 to 71 °C.
To `CC(=O)OCC(=O)c1ccc(-c2ccccc2)cc1` belongs 109 to 110 °C; to `COc1cc2c(cc1OC)C1(CNC(=O)C1)CC2=O` (configuration not stated), 193 to 195 °C; to `O=C(O)c1ccc(-c2cc(-c3ccc(Cl)cc3)on2)cc1`, greater than 300 °C.
To `CN1CCN(c2cccc3nc4n(c(=O)c23)-c2ccc(F)cc2C4=O)CC1` belongs 232 to 233 °C; to `COC(=O)c1sc(OC)c(Br)c1O`, 107 to 109 °C; to `CCOC(=O)c1cn(C)c2c(=O)oc3ccccc3c2c1=O`, 203 to 208 °C.
To `CC(C)(C)c1ccccc1N1CCN(C(=O)Cc2nnn[nH]2)CC1` belongs 236 to 237 °C.
Turning to `Cn1ccc(-c2cc3nccnc3[nH]2)c1`, the melting point is 211 to 213 °C.
For the compound `CCCCCc1scc2c1n(C(=O)OC)c(=O)n2C(=O)OC`, the melting point is 99 to 102 °C.
To `O=C(O)C1=Cc2cc(Cl)cc(Cl)c2OC1C(F)(F)F` (configuration not stated) belongs 166 to 168 °C; to `C/C=C/C(=O)NCCc1ccc(F)cc1`, 121 to 123 °C.
For `Cc1cc(C)c2c(=O)[nH]c(-c3cc(C)c(OCCN4CCCC4)c(C)c3)nc2c1` the value was 181 to 182 °C; for `O=C(NCc1ccncc1)c1cccnc1Oc1cccnc1`, 142 to 144 °C.
For `COC1CCN(S(=O)(=O)c2ccc([N+](=O)[O-])cc2C(F)(F)F)CC1` the value was 141 to 143 °C.
The compound `COc1cc(-c2nc3ccccc3n2Cc2ccccc2F)cc(OC)c1OC` yielded a melting point of 154 °C.
`O=C(O)c1cnc2ccc(Cl)cc2c1-c1ccccc1` returned a melting point of 269 to 270 °C.
`COc1ccc2c(ccn2CC2(c3ccccc3Br)OCCO2)n1` had a melting point of 143 to 144 °C.
For `CC(C)CN1C2=NCCN2C(=O)C(N=O)=C1N`, the melting point lay in the range of 203 to 205 °C.
For `Cc1cncn1-c1cc(N)cc(C(F)(F)F)c1` the value was 131 to 133 °C.
To `CC(C)S(=O)(=O)c1ccccc1S(N)(=O)=O` belongs 150 to 153 °C; to `CC(C)(C)OC(=O)Nc1cc(=O)c2cc(Oc3ccccc3)c(NS(C)(=O)=O)cc2o1`, 147 to 150 °C; to `O=[N+]([O-])c1ccc(-c2c(Cl)ncnc2NS(=O)(=O)c2ccc(Cl)cc2)cc1`, 282 to 285 °C.
With `COCCOc1cc2ncc(C#N)c(NC3=CC(=O)C(C)=CC3=O)c2cc1OC`, the melting point was in the range of 174 to 177 °C.
With `C=C(Br)c1cc(O)cc2nc(-c3ccc(O)c(F)c3F)oc12`, the melting point is 240 to 242 °C.
To `CCOc1c(C)c(N2CCN(c3ccc(C)cc3)CC2)c(C)c2c1OC(C)(C)C2` belongs 152 to 155 °C; to `O=C(O)c1cc(Cl)cc(Cl)c1[N+](=O)[O-]`, 190 to 192 °C; to `CCCc1nc(C)c2c(=O)[nH]c(N)nn12`, 266 °C.
As to `O=c1cc(-c2cccc(Cl)c2)oc2ccc(OCCCCCCN3CCC(O)CC3)cc12`, the melting point fell in the range of 120 to 121 °C.
In the case of `CC(C)(C)OC(=O)NC1CCc2cc3ccccc3n2C1` (configuration not stated), the melting point was in the range of 137 to 139 °C.
To `CCCCCS(=O)(=O)NC(=O)CCc1ccc(OCCCOCCOC)cc1Oc1ncc(C(F)(F)F)cc1Cl` belongs 95 to 95.8 °C; to `Nc1cc(CCC(=O)Nc2ccc(Cl)cc2Cl)ccc1O`, 130 to 131 °C; to `CC(C)(C)c1cc(NC=O)n[nH]1`, 204 to 206 °C.
`CCOC(=O)C1Cc2c([nH]c3cccc(C#N)c23)CN1` (configuration not stated) had a melting point of 248 °C.
For `O=C(Nc1ccccc1)Oc1cc(N2C(=O)C3=C(CCCC3)C2=O)c(F)cc1Cl` the value was 149 to 151 °C.
In turn, `O=c1oc(CCc2ccccc2)cc(O)c1SCc1ccccc1` yielded a melting point of 164 to 166 °C.
Compound `COC(=O)[C@@H]1CCN1S(=O)(=O)c1ccc(Cl)c(CBr)c1Cl` came in with a melting point of 150 °C.
Compound `Cc1cnc2n1-c1cc(Cl)c(Cl)cc1N=C(c1ccc(-n3c(C)nnc3C)cc1)C2` gave a melting point of 165 °C.
Turning to `NC(=O)C1CCC(=O)N1CC#CCN1CCCC1` (configuration not stated), the melting point was in the range of 146 to 148 °C.
To `O=C(NCC1CC2CCC1C2)n1cc(F)c(=O)[nH]c1=O` (configuration not stated) belongs 165 to 166 °C; to `O=C(O)C1Cc2c([nH]c3ccccc23)CN1C(=S)SC1CCCCC1` (configuration not stated), 150 to 151 °C; to `CC(C)C1(C(=O)O)CCCCC1`, 102 °C.
The compound `Cc1noc2nc(-c3ccccc3)cc(O)c12` registered a melting point of 281 to 282 °C.
To `Cc1cc(C(=O)NCO)ncc1C(c1c(F)ccc(F)c1F)S(=O)(=O)c1ccc(Cl)cc1` (configuration not stated) belongs 177 to 178 °C; to `CC(C)(C)CC(=O)c1c(-c2ccc3cc(O)ccc3c2)oc2ccccc12`, 205 to 207 °C.
As to `CNC(=O)CNC(=O)c1ccc(C)c(-n2c(C)cc(OCc3ccccc3CNC(=O)Nc3cc(C(C)(C)C)nn3-c3ccc(Cl)c(O)c3)c(Cl)c2=O)c1`, the melting point fell in the range of 179 to 181 °C.
To `CCOC(=O)C(=NO)C(=O)OCC` belongs 86.5 to 88 °C; to `Nc1ncc2ncn(CCC(CO)COC(=O)c3ccccc3)c2n1` (configuration not stated), 116 to 118 °C; to `COC(=O)c1csc(-c2cc3ccccc3n2C)n1`, 124 to 127 °C.
`COC(=O)c1c(S(N)(=O)=O)c(C)nn1-c1ccccn1` returned a melting point of 170 to 172 °C.
On to `COc1ccc(N2CCN(c3ccc(Nc4nnc(C)s4)cc3)CC2)cc1`, for which the melting point was 277 °C.
To `CC(=O)c1cc2c(=O)n(NS(C)(=O)=O)c(=O)[nH]c2cc1C(F)(F)F` belongs 258 to 265 °C; to `Nc1nc(-c2ccc(CN3CCCCCC3)s2)n[nH]1`, 160 to 161 °C; to `CCCc1c(CSc2nnc(SCCCC(=O)O)s2)ccc(C(C)=O)c1O`, 75 to 78 °C.
`COc1cc(Nc2ncc(-c3ccccc3)o2)ccc1-c1cnco1` returned a melting point of 212 to 215 °C.
To `FC(F)(F)C(F)(F)C1(CNC2=NCCO2)CCCCC1` belongs 115 to 118 °C; to `CCSc1nc(Cl)nc2cccnc12`, 101 to 103 °C.
Regarding `Cc1cc(O)c(Oc2ccccc2C#N)cc1Br`, the melting point fell in the range of 99 to 101 °C.
For `O=C(O)[C@H](Cc1ccc(C(F)(F)F)cc1)[C@@H](O)c1ccccc1F` (racemic) the value was 122 to 123 °C; for `CCOC(=O)CCc1cn(-c2ccccc2)nc1OCc1ccc(OCc2nc(-c3ccco3)oc2C)c(OC)c1`, 97 to 98 °C; for `CCOC(=O)c1cc(=O)c2cc3c(=O)cc(C(=O)OCC)oc3cc2[nH]1`, 201 to 202 °C.
`c1ccc(-c2cnc3ccccc3n2)cc1` displayed a melting point of 77 °C.
Consider `COc1c(N)cc(-c2c3ccccc3c(Br)c3sc(C)c(C)c23)cc1Br`, for which the melting point fell in the range of 198 to 200 °C.
`CC(=O)OCCn1nc(-c2cc(C(C)(C)C)c(O)c(C(C)(C)C)c2)c2cccnc21`: the melting point was in the range of 115 to 116 °C.
For `CC(=S)NC(C(=O)NCc1ccccc1)c1ccco1` (configuration not stated) the value was 78 to 80 °C.
For `O=C1c2ccc(N3CCN(c4ccccc4)CC3)nc2CC2CCCCC12` (configuration not stated) the value was 164 to 166 °C; for `CC(C)(C#N)c1cc(Cc2cccnc2)cc(C(C)(C)C#N)c1`, 82 to 84 °C.
Turning to `O=Nc1ccc(NC2CCCCC2)cc1`, the melting point lay within 90 to 92 °C.
`O=C(NC(Cc1c[nH]c2ccccc12)C(=O)C(=O)CCl)OC1C2CC3CC(C2)CC1C3` (configuration not stated): the melting point lay in the range of 56 to 63 °C.
For `Cn1c(COc2ccc(CC3SC(=O)NC3=O)cc2)cc2cccnc21` (configuration not stated) the value was 183 to 185 °C; for `Nc1ccc(OC2=C(Oc3ccc(N)cc3C(F)(F)F)C(F)(F)C(F)(F)C2(F)F)c(C(F)(F)F)c1`, 88 to 93 °C; for `COC(=O)CCNCC1CC2c3cccc4[nH]cc(c34)CC2N(C)C1` (configuration not stated), 130 to 132 °C.
To `CCCc1oc(C)cc1C(=O)O` belongs 91 to 102 °C.
As to `COc1ccc2c(c1)c(CC(=O)O)c(C)n2C(=O)c1ccc(F)c(F)c1`, the melting point was 113 to 115 °C.
For `COc1c(Nc2ncc(Cl)c(N[C@H]3[C@@H](C(N)=O)[C@@H]4C=C[C@H]3C4)n2)ccc2c1CC(N1CCOCC1)CCC2` (some centres not stated) the value was 139 to 148 °C; for `C=CCOc1nc2cccc(C(=O)OC)c2n1Cc1ccc(-c2ccccc2-c2nnn[nH]2)cc1`, 154 to 156 °C.
To `O=C(Nc1ccccc1)Nc1nc(C(O)CO)cs1` (configuration not stated) belongs 175 to 178 °C.
Regarding `O=[N+]([O-])c1cnn2c(-c3cccc(C(F)(F)F)c3)ccnc12`, the melting point was in the range of 159 to 161 °C.

Source of the values: a melting point compilation (Tetko et al.; mined from patent text by program, amines drawn as free bases though some values may be those of a salt).
